From ChEMBL document CHEMBL1155121, “4-Hydroxy-5-pyrrolinone-3-carboxamide HIV-1 integrase inhibitors” (Bioorg Med Chem Lett, 2008)
pIC50: −log10 of the molar value. Activity calls are given as the source filed them. The rule behind the calls is not given here.

How the values were obtained:
[1] = tested on: Human immunodeficiency virus 1; experiment: Antiviral activity against HIV1 in human MT4 cells at 25 uM; format: functional
[2] = target: Human immunodeficiency virus type 1 integrase (Human immunodeficiency virus 1, UniProt Q7ZJM1); experiment: Inhibition of recombinant HIV1 integrase strand transfer activity
Sequence of Human immunodeficiency virus type 1 integrase (Q7ZJM1 whole entry): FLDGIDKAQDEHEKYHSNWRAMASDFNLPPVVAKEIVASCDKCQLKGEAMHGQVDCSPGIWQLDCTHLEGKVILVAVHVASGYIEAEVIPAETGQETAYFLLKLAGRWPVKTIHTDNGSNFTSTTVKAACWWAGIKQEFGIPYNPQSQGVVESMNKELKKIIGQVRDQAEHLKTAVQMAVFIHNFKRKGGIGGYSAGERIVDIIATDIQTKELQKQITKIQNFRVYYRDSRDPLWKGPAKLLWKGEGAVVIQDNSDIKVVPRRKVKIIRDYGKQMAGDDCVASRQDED

[3] = tested on: MT4; experiment: Cytotoxicity against human MT4 cells up to 20 uM; format: cell-based
[4] = tested on: Plasma; experiment: Fraction unbound in human plasma; format: ADME, cell-free

Row | pIC50 [2] | Fu [4] | SMILES | Activity [1] | Activity [3]
1 | 8.30 |  | O=C(NCc1ccc(F)cc1)C1=C(O)C(=O)N(CCCc2ccccc2)C1 | inactive | Not Active
2 | 8.40 |  | COc1ccccc1CCN1CC(C(=O)NCc2ccc(F)cc2)=C(O)C1=O | inactive | Not Active
3 | 7.00 |  | O=C(NCc1ccc(F)cc1)C1=C(O)C(=O)N(Cc2ccccc2)C1 | inactive | Not Active
4 | 7.74 |  | O=C(NCc1ccc(F)cc1)C1=C(O)C(=O)N2CCCCC12 (stereo not drawn) | 35% | Not Active
5 | < 6.00 |  | O=C(NCc1ccc(F)cc1)C1=C(O)C(=O)N(CCN2CCOCC2)C1C(=O)NCc1ccc(F)cc1 (stereo not drawn) | inactive | Not Active
6 | 7.03 | < 1% | O=C(NCc1ccc(F)cc1)C1=C(O)C(=O)N(Cc2ccccn2)C1 | inactive | Not Active
7 | < 6.00 |  | O=C(NCc1ccc(F)cc1)C1=C(O)C(=O)N(CCN2CCCCC2)C1 | inactive | Not Active
8 | < 6.00 |  | CN1C(=O)C(O)=C(C(=O)NCc2ccc(F)cc2)C1c1ccccc1 (stereo not drawn) | inactive | Not Active
9 | 8.22 |  | Cc1cccc(CN2CC(C(=O)NCc3ccc(F)cc3)=C(O)C2=O)c1 | inactive | Not Active
